Data: the supplement of paper PMC11451515

Assays:
Details in all cases: 48 h
[1] = test system: NOMO1; assay: cell viability relative to DMSO control; higher = less cytotoxic
Summary of the method: (§1)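 Library compounds in DMSO were pin-dosed into 1536-well plates (5 μl) holding NOMO1 or SEM (500 cells/well) or P12-Ichikawa (1000 cells/well) leukemia cells, across an 11-point threefold series of 47 μM to 0.79 nM. Each cell line had been adapted for at least four passages in each medium. CellTiter-Glo One luminescence was read after 48 h at 37°C. Viability is the per-plate percentage relative to DMSO wells, with cell-free wells as background.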

[2] = test system: P12-Ichikawa; assay: as above
Summary of the method: as §1

[3] = test system: SEM cells; assay: as above
Summary of the method: as §1

[4] = test system: NOMO1; assay: AUC of viability dose-response curve (% viability x log10 dose units); higher = less sensitive
Summary of the method: (§2)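 Leukemia cells adapted to each medium (500 or 1000 cells/well, 1536-well plates) were exposed to library compounds in DMSO for 48 h at 37°C at 11 threefold doses, 47 μM to 0.79 nM. Luminescence by CellTiter-Glo One was normalised per plate to DMSO and cell-free wells, then fitted with a four-parameter log-logistic curve on log10 dose. Curves above full viability were scaled and quality-control failures removed before area under the curve was integrated by trapezoidal rule.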

[5] = test system: P12-Ichikawa; assay: as above
Summary of the method: as §2

[6] = test system: SEM cells; assay: as above
Summary of the method: as §2

N[C@@H](Cc1cc(I)c(Oc2cc(I)c(O)c(I)c2)c(I)c1)C(=O)O
cell viability [%]
Details	[1]	[2]	[3]
HPLM + 10% dialyzed FBS, 0.000781 µM	119	118	102
HPLM + 10% dialyzed FBS, 0.00234 µM	109	116	121
HPLM + 10% dialyzed FBS, 0.00702 µM	105	106	107
HPLM + 10% dialyzed FBS, 0.0211 µM	103	113	113
HPLM + 10% dialyzed FBS, 0.0632 µM	111	113	78.2
HPLM + 10% dialyzed FBS, 0.19 µM	109	103	129
HPLM + 10% dialyzed FBS, 0.569 µM	125	106	119
HPLM + 10% dialyzed FBS, 1.71 µM	94.5	109	120
HPLM + 10% dialyzed FBS, 5.12 µM	112	106	117
HPLM + 10% dialyzed FBS, 15.4 µM	104	101	93.8
HPLM + 10% dialyzed FBS, 46.1 µM	97.4	98.6	92.2
RPMI 5 mM glucose + 10% FBS, 0.000781 µM	92.9	126	98.2
RPMI 5 mM glucose + 10% FBS, 0.00234 µM	105	120	105
RPMI 5 mM glucose + 10% FBS, 0.00702 µM	107	121	103
RPMI 5 mM glucose + 10% FBS, 0.0211 µM	100	113	106
RPMI 5 mM glucose + 10% FBS, 0.0632 µM	101	123	59.2
RPMI 5 mM glucose + 10% FBS, 0.19 µM	97	124	112
RPMI 5 mM glucose + 10% FBS, 0.569 µM	108	122	115
RPMI 5 mM glucose + 10% FBS, 1.71 µM	105	107	104
RPMI 5 mM glucose + 10% FBS, 5.12 µM	93.6	112	94.2
RPMI 5 mM glucose + 10% FBS, 15.4 µM	112	114	88.3
RPMI 5 mM glucose + 10% FBS, 46.1 µM	84.8	104	84.6
RPMI 5 mM glucose + 10% dialyzed FBS, 0.000781 µM	109	111	–
RPMI 5 mM glucose + 10% dialyzed FBS, 0.00234 µM	116	107	–
RPMI 5 mM glucose + 10% dialyzed FBS, 0.00702 µM	113	108	–
RPMI 5 mM glucose + 10% dialyzed FBS, 0.0211 µM	113	109	–
RPMI 5 mM glucose + 10% dialyzed FBS, 0.0632 µM	94.1	109	–
RPMI 5 mM glucose + 10% dialyzed FBS, 0.19 µM	95.5	114	–
RPMI 5 mM glucose + 10% dialyzed FBS, 0.569 µM	96.9	103	–
RPMI 5 mM glucose + 10% dialyzed FBS, 1.71 µM	98.9	111	–
RPMI 5 mM glucose + 10% dialyzed FBS, 5.12 µM	94	104	–
RPMI 5 mM glucose + 10% dialyzed FBS, 15.4 µM	96.8	103	–
RPMI 5 mM glucose + 10% dialyzed FBS, 46.1 µM	92.6	101	–

AUC of viability dose-response curve
Details	[4]	[5]	[6]
HPLM + 10% dialyzed FBS	456	445	463
RPMI 5 mM glucose + 10% FBS	473	460	454
RPMI 5 mM glucose + 10% dialyzed FBS	429	468	438

CN1CCN(c2cc(C(=O)Nc3ccc4c(c3)-c3c(c(C(N)=O)nn3-c3ccc(F)cc3)CC4)c(Cl)cn2)CC1
cell viability [%]
Details	[1]	[2]	[3]
HPLM + 10% dialyzed FBS, 0.000781 µM	123	115	93.3
HPLM + 10% dialyzed FBS, 0.00234 µM	106	109	95.7
HPLM + 10% dialyzed FBS, 0.00702 µM	108	102	103
HPLM + 10% dialyzed FBS, 0.0211 µM	113	114	109
HPLM + 10% dialyzed FBS, 0.0632 µM	114	114	116
HPLM + 10% dialyzed FBS, 0.19 µM	127	107	110
HPLM + 10% dialyzed FBS, 0.569 µM	113	105	105
HPLM + 10% dialyzed FBS, 1.71 µM	103	98.1	103
HPLM + 10% dialyzed FBS, 5.12 µM	99.4	104	110
HPLM + 10% dialyzed FBS, 15.4 µM	85.9	95	81.8
HPLM + 10% dialyzed FBS, 46.1 µM	1.35	3.56	4.03
RPMI 5 mM glucose + 10% FBS, 0.000781 µM	108	113	–
RPMI 5 mM glucose + 10% FBS, 0.00234 µM	102	111	–
RPMI 5 mM glucose + 10% FBS, 0.00702 µM	111	116	–
RPMI 5 mM glucose + 10% FBS, 0.0211 µM	109	113	–
RPMI 5 mM glucose + 10% FBS, 0.0632 µM	109	109	–
RPMI 5 mM glucose + 10% FBS, 0.19 µM	107	120	–
RPMI 5 mM glucose + 10% FBS, 0.569 µM	112	107	–
RPMI 5 mM glucose + 10% FBS, 1.71 µM	106	102	–
RPMI 5 mM glucose + 10% FBS, 5.12 µM	109	103	–
RPMI 5 mM glucose + 10% FBS, 15.4 µM	97.4	104	–
RPMI 5 mM glucose + 10% FBS, 46.1 µM	2.41	12	–
RPMI 5 mM glucose + 10% dialyzed FBS, 0.000781 µM	116	113	125
RPMI 5 mM glucose + 10% dialyzed FBS, 0.00234 µM	108	107	109
RPMI 5 mM glucose + 10% dialyzed FBS, 0.00702 µM	121	122	121
RPMI 5 mM glucose + 10% dialyzed FBS, 0.0211 µM	102	111	131
RPMI 5 mM glucose + 10% dialyzed FBS, 0.0632 µM	117	124	138
RPMI 5 mM glucose + 10% dialyzed FBS, 0.19 µM	107	109	120
RPMI 5 mM glucose + 10% dialyzed FBS, 0.569 µM	93.4	105	103
RPMI 5 mM glucose + 10% dialyzed FBS, 1.71 µM	100	100	104
RPMI 5 mM glucose + 10% dialyzed FBS, 5.12 µM	99.9	104	109
RPMI 5 mM glucose + 10% dialyzed FBS, 15.4 µM	102	102	106
RPMI 5 mM glucose + 10% dialyzed FBS, 46.1 µM	2.16	5.67	3.39

AUC of viability dose-response curve
Details	[4]	[5]	[6]
HPLM + 10% dialyzed FBS	442	448	444
RPMI 5 mM glucose + 10% FBS	449	453	360
RPMI 5 mM glucose + 10% dialyzed FBS	451	451	449

Cc1n[nH]c2ccc(-c3cncc(OC[C@@H](N)Cc4c[nH]c5ccccc45)c3)cc12
cell viability [%]
Details	[1]	[2]	[3]
HPLM + 10% dialyzed FBS, 0.000781 µM	–	–	98.9
HPLM + 10% dialyzed FBS, 0.00234 µM	–	–	104
HPLM + 10% dialyzed FBS, 0.00702 µM	–	–	89.8
HPLM + 10% dialyzed FBS, 0.0211 µM	–	–	97.8
HPLM + 10% dialyzed FBS, 0.0632 µM	–	–	83.7
HPLM + 10% dialyzed FBS, 0.19 µM	–	–	40.6
HPLM + 10% dialyzed FBS, 0.569 µM	–	–	32.9
HPLM + 10% dialyzed FBS, 1.71 µM	–	–	19.2
HPLM + 10% dialyzed FBS, 5.12 µM	–	–	2.11
HPLM + 10% dialyzed FBS, 15.4 µM	–	–	0.908
HPLM + 10% dialyzed FBS, 46.1 µM	–	–	1.79
RPMI 5 mM glucose + 10% FBS, 0.000781 µM	108	108	94.9
RPMI 5 mM glucose + 10% FBS, 0.00234 µM	114	114	111
RPMI 5 mM glucose + 10% FBS, 0.00702 µM	116	100	88.6
RPMI 5 mM glucose + 10% FBS, 0.0211 µM	118	98.9	102
RPMI 5 mM glucose + 10% FBS, 0.0632 µM	117	88.5	95.7
RPMI 5 mM glucose + 10% FBS, 0.19 µM	77.4	70.2	67
RPMI 5 mM glucose + 10% FBS, 0.569 µM	92.6	80.3	59.7
RPMI 5 mM glucose + 10% FBS, 1.71 µM	33.2	35.5	25
RPMI 5 mM glucose + 10% FBS, 5.12 µM	8.24	17.8	2.35
RPMI 5 mM glucose + 10% FBS, 15.4 µM	1.64	2.32	0.602
RPMI 5 mM glucose + 10% FBS, 46.1 µM	1.13	1.05	1.49
RPMI 5 mM glucose + 10% dialyzed FBS, 0.000781 µM	104	107	103
RPMI 5 mM glucose + 10% dialyzed FBS, 0.00234 µM	112	119	99.4
RPMI 5 mM glucose + 10% dialyzed FBS, 0.00702 µM	93.1	105	84.2
RPMI 5 mM glucose + 10% dialyzed FBS, 0.0211 µM	94.6	108	92.3
RPMI 5 mM glucose + 10% dialyzed FBS, 0.0632 µM	93.1	96.9	89
RPMI 5 mM glucose + 10% dialyzed FBS, 0.19 µM	63.5	74.8	56.1
RPMI 5 mM glucose + 10% dialyzed FBS, 0.569 µM	63.6	64	47.7
RPMI 5 mM glucose + 10% dialyzed FBS, 1.71 µM	29.6	38.5	26.6
RPMI 5 mM glucose + 10% dialyzed FBS, 5.12 µM	5.35	27.1	2.83
RPMI 5 mM glucose + 10% dialyzed FBS, 15.4 µM	1.27	2.44	0.892
RPMI 5 mM glucose + 10% dialyzed FBS, 46.1 µM	0.733	1.33	1.9

AUC of viability dose-response curve
Details	[4]	[5]	[6]
HPLM + 10% dialyzed FBS	270	309	245
RPMI 5 mM glucose + 10% FBS	310	294	286
RPMI 5 mM glucose + 10% dialyzed FBS	280	290	265
